Assay results: patent publication US20240132431A1, “METHOD FOR ALKYLATING ACIDIC FUNCTIONAL GROUP” (Chugai Seiyaku Kabushiki Kaisha, priority 2021, published 2024)
Each block holds one compound with its values, some of them ahead of it.

Biological target: T1, Bcl-2 protein (Recombinant Human Bcl-2 Protein) (Homo sapiens, UniProt P10415)
T1 construct: purchased Novus NBP2-34889
Assay: Binding evaluation of mixture library compounds to Bcl-2 using AS-MS (affinity selection mass spectrometry)
Details: for ASMS ratio (%) n = 1 / ASMS ratio (%) n = 2: ASMS Ratio(%)=(A−C)/B×100; for ASMS ratio (%) n = 1: replicate n = 1; for ASMS ratio (%) n = 2: replicate n = 2
Method: For one well of MICROPLATE, 96-well, PP, V-BOTTOM (Greiner bio-one, 651201), DMSO solutions of 12 mixtures (prepared to approximately 0.58 mM based on calculations from the average molecular weight of each mixture), in each of which 100 compounds are mixed, were each dispensed, and dispensed into a total of 12 wells, where the 12 mixtures are mixAI-B4J-01, mixAI-B1M-01, mixAI-B1K-01, mixAI-B10-01, mixAI-B1A-01, mixAI-B3A-01, mixAI-B21-01, mixAI-B2L-01, mixAI-B2N-01, mixAI-B2A-01, mixAI-B2Q-01, and mixAI-B2R-01 listed in [Table AI-03-B4J-01], [Table AI-03-B1M-01], [Table AI-03-B1K-01], [Table AI-03-B10-01], [Table AI-03-B1A-01], [Table AI-03-B3A-01], [Table AI-03-B2I-01], [Table AI-03-B2L-01], [Table AI-03-B2N-01], [Table AI-03-B2A-01], [Table AI-03-B2Q-01], and [AI-03-B2R-01] shown in Example 6. Using the LABCYTE ECHO® 555 Acoustic Dispensing System (BECKMAN COULTER), 70 nL was collected from each of the 12 wells into one arbitrary well to prepare a sample solution with 1200 compounds in the mixed state (the presence of 1152 compounds had already been identified when prepared in Example 6-5-3). (In the present specification, the mixture collected in this one well is referred to as one library.) Furthermore, a Bcl-2 protein (Novus, NBP2-34889, Recombinant Human Bcl-2 Protein, Lot E60145051) (19.2 μL) that had been prepared in advance to be 20.9 μM using a Tris-HCl buffer (25 mM Tris-HCl pH 7.4, 150 mM NaCl, 0.025% Tween-20, 1 mM DTT) was added to the well in which 1200 compounds (the presence of 1152 compounds had already been identified when prepared in Example 6-5-3) were dispensed (final compound concentration […], final Bcl-2 concentration 20 μM), and the mixture was incubated in the dark at 23° C. for 1 hour. Next, using the 96-well MacroSpin column, P-2 Material (Harvard, 74-5655) that had been swollen, conditioning of the 96-well MacroSpin column was performed three times by centrifugation with 200 μL of an assay buffer (25 mM Tris-HCl pH 7.4, 150 mM NaCl, 0.025% Tween-20, 1 mM DTT), 2000 XG, 4° C., 2 min. Subsequently, 20 μL of the sample after incubation was added to the 96-well MacroSpin column, P-2 Material, that had been conditioned, and SEC treatment was performed by centrifugation at 2000×G for 2 minutes. To the liquid passed from the SEC, 32 μL of a 1:1 mixed solution of acetonitrile and methanol (LC/MS grade, Fujifilm Wako Pure Chemical Corporation) was added, the mixture was centrifuged at 1800×G, 4° C., 5 min, and the supernatant was used as analysis sample ASMS (A), while a sample that had been prepared by the same operations at 1200 compounds/well and to which only the Tris-HCl buffer had been added without the Bcl-2 protein was incubated under the same conditions, no 96-well MacroSpin column treatment was performed, the same organic solvent was added, and the supernatant solution obtained by centrifugation was used as STD (B). Next, a sample that had been prepared by the same operations at 1200 compounds/well and to which only the Tris-HCl buffer had been added without the Bcl-2 protein was incubated under the same conditions, the same 96-well MacroSpin column treatment was performed, the same organic solvent was added, and the supernatant solution obtained by centrifugation was used as BK (C), and measured by reversed phase LC/MS.
Then, analysis of the 1200 compounds was carried out for samples A, B, and C with TraceFinder 5.1 (Thermo Fisher Scientific) and CHANCE Software (in-house), and the ASMS Ratio (%) was calculated according to the following calculation formula.
Calculation formula: ASMS Ratio(%)=(A−C)/B×100

[1] = AS-MS on the mixture of 1200 library compounds
[2] = AS-MS, mixture of 1200 compounds, Bcl-2

T1 sequence (P10415 whole entry): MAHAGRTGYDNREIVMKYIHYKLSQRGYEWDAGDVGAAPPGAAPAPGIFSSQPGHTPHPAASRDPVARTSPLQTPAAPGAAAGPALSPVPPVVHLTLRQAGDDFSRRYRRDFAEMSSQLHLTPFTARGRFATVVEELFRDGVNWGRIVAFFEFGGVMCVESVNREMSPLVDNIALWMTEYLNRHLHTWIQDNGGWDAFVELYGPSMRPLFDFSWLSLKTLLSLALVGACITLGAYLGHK

- ASMS ratio (%) n = 1 [1]: 0.0%
- ASMS ratio (%) n = 2 [1]: 0.0%
Compound: CCOc1cccc(-c2ccccc2CN2CCN(c3ccc(C(=O)Nc4ccc(OC)cc4)cc3)CC2)c1 [B1O045-01, 4-[4-[[2-(3-Ethoxyphenyl)phenyl]methyl]piperazin-1-yl]-N-(4-methoxyphenyl)benzamide]

- ASMS ratio (%) n = 1 [2]: 0.0%
- ASMS ratio (%) n = 2 [2]: 1.3%
Compound: CCOc1cccc(C#Cc2ccccc2C(=O)N2CCN(c3ccc(C(=O)NCC(F)(F)F)nn3)CC2)c1 [B1K007-01, 6-[4-[2-[2-(3-Ethoxyphenyl)ethynyl]benzoyl]piperazin-1-yl]-N-(2,2,2-trifluoroethyl)pyridazine-3-carboxamide]

- ASMS ratio (%) n = 1 [2]: −3.3%
- ASMS ratio (%) n = 2 [2]: 0.5%
Compound: CCOc1cncc(-c2ccc(CN3CCN(c4ccc(C(=O)NCC(F)(F)F)cc4)CC3)cc2F)c1 [B1K052-01, 4-[4-[[4-(5-Ethoxypyridin-3-yl)-3-fluorophenyl]methyl]piperazin-1-yl]-N-(2,2,2-trifluoroethyl)benzamide]

- ASMS ratio (%) (n = 1): −0.6%
- ASMS ratio (%) (n = 2): 1.5%
Compound: CCOc1cncc(-c2ccccc2CN2CCN(c3ccc(C(=O)NS(C)(=O)=O)cc3)CC2)c1 [B2I046-01, 4-[4-[[2-(5-Ethoxypyridin-3-yl)phenyl]methyl]piperazin-1-yl]-N-methylsulfonylbenzamide]

- ASMS ratio (%) n = 1 [2]: 2.3%
- ASMS ratio (%) n = 2 [2]: −0.6%
Compound: CCOc1cccc(-c2ccccc2CCC(=O)N2CCN(c3ccc(C(=O)NCC(F)(F)F)cc3)CC2)c1 [B1K033-01, 4-[4-[3-[2-(3-Ethoxyphenyl)phenyl]propanoyl]piperazin-1-yl]-N-(2,2,2-trifluoroethyl)benzamide]

- ASMS ratio (%) n = 1 [2]: 2.8%
- ASMS ratio (%) n = 2 [2]: 2.0%
Compound: CCOc1cccc(-c2ccc(CN3CCN(c4ccc(C(=O)NCC(F)(F)F)cc4)CC3)cc2F)c1 [B1K051-01, 4-[4-[[4-(3-Ethoxyphenyl)-3-fluorophenyl]methyl]piperazin-1-yl]-N-(2,2,2-trifluoroethyl)benzamide]

- ASMS ratio (%) n = 1 [2]: 0.0%
- ASMS ratio (%) n = 2 [2]: 0.9%
Compound: CCOc1cncc(C#Cc2ccccc2C(=O)N2CCN(c3ccc(C(=O)NCC(F)(F)F)cc3)CC2)c1 [B1K030-01, 4-[4-[2-[2-(5-Ethoxypyridin-3-yl)ethynyl]benzoyl]piperazin-1-yl]-N-(2,2,2-trifluoroethyl)benzamide]

- ASMS ratio (%) (n = 1): 0.0%
- ASMS ratio (%) (n = 2): 0.0%
Compound: CCOc1cccc(-c2ccc(CN3CCN(c4ccc(C(=O)NS(C)(=O)=O)cc4)CC3)cc2F)c1 [B2I051-01, 4-[4-[[4-(3-Ethoxyphenyl)-3-fluorophenyl]methyl]piperazin-1-yl]-N-methylsulfonylbenzamide]

Second part, the compound before the results:

Compound: 4-[4-[4-(5-Ethoxypyridin-3-yl)thiophene-2-carbonyl]piperazin-1-yl]-N-propylbenzamide [B1M084-01]
- ASMS ratio (%) n = 1 [1]: 0.0%
- ASMS ratio (%) n = 2 [1]: 0.0%

Compound: 4-[4-[[4-(5-Ethoxypyridin-3-yl)naphthalen-1-yl]methyl]piperazin-1-yl]-N-propylbenzamide [B1M046-01]
- ASMS ratio (%) n = 1 [2]: 0.7%
- ASMS ratio (%) n = 2 [2]: −1.2%

Compound: CCOc1cncc(C#Cc2cncc(C(=O)N3CCN(c4ccc(C(=O)NCC(F)(F)F)nn4)CC3)c2)c1 [B1K010-01, 6-[4-[5-[2-(5-Ethoxypyridin-3-yl)ethynyl]pyridine-3-carbonyl]piperazin-1-yl]-N-(2,2,2-trifluoroethyl)pyridazine-3-carboxamide]
- ASMS ratio (%) n = 1 [2]: 0.0%
- ASMS ratio (%) n = 2 [2]: 0.0%

Compound: CCOc1cncc(-c2ccc(C(=O)N3CCN(c4ccc(C(=O)NS(=O)(=O)CC56CC7CC(CC(C7)C5)C6)cc4)CC3)c3ccccc23)c1 [B2A036-01, N-(1-Adamantylmethylsulfonyl)-4-[4-[4-(5-ethoxypyridin-3-yl)naphthalene-1-carbonyl]piperazin-1-yl]benzamide]
- ASMS ratio (%) n = 1 (AS-MS, mixture library, Bcl-2): 2.0%
- ASMS ratio (%) n = 2 (AS-MS, mixture library, Bcl-2): −0.4%

Compound: CCOc1cncc(-c2cc(CN3CCN(c4ccc(C(=O)NS(=O)(=O)CCC(F)(F)F)nn4)CC3)cc(OC(C)C)c2)c1 [B2N084-01, 6-[4-[[3-(5-Ethoxypyridin-3-yl)-5-propan-2-yloxyphenyl]methyl]piperazin-1-yl]-N-(3,3,3-trifluoropropylsulfonyl)pyridazine-3-carboxamide]
- ASMS ratio (%) (n = 1): 0.0%
- ASMS ratio (%) (n = 2): 0.0%

Compound: CCOc1cccc(-c2cnn(-c3cc(C(=O)N4CCN(c5ccc(C(=O)N(C)CC67CC8CC(CC(C8)C6)C7)cc5)CC4)cc(C(F)(F)F)c3)c2)c1 [B3A043-01, N-(1-Adamantylmethyl)-4-[4-[3-[4-(3-ethoxyphenyl)pyrazol-1-yl]-5-(trifluoromethyl)benzoyl]piperazin-1-yl]-N-methylbenzamide]
- ASMS ratio (%) n = 1 [1]: 0.5%
- ASMS ratio (%) n = 2 [1]: −0.3%

Compound: CCOc1cncc(-c2ccc(CN3CCN(c4ccc(C(=O)NS(=O)(=O)c5ccc(NCCSc6ccccc6)c([N+](=O)[O-])c5)nn4)CC3)c(OC)c2)c1 [B2Q080-01, 6-[4-[[4-(5-Ethoxypyridin-3-yl)-2-methoxyphenyl]methyl]piperazin-1-yl]-N-[3-nitro-4-(2-phenylsulfanylethylamino)phenyl]sulfonylpyridazine-3-carboxamide]
- ASMS ratio (%) n = 1 (AS-MS, mixture library, Bcl-2): 12.6%
- ASMS ratio (%) n = 2 (AS-MS, mixture library, Bcl-2): 3.6%

Compound: CCOc1cncc(-c2cc(CN3CCN(c4ccc(C(=O)N(CC)CC)nn4)CC3)cc(OCC)c2)c1 [B4J082-01, 6-[4-[[3-Ethoxy-5-(5-ethoxypyridin-3-yl)phenyl]methyl]piperazin-1-yl]-N,N-diethylpyridazine-3-carboxamide]
- ASMS ratio (%) n = 1 (AS-MS, mixture library, Bcl-2): 0.0%
- ASMS ratio (%) n = 2 (AS-MS, mixture library, Bcl-2): 0.0%

Compound: CCOc1cccc(-c2ccccc2CCC(=O)N2CCN(c3ccc(C(=O)NS(=O)(=O)c4ccc(NCCSc5ccccc5)c([N+](=O)[O-])c4)nn3)CC2)c1 [B2Q011-01, 6-[4-[3-[2-(3-Ethoxyphenyl)phenyl]propanoyl]piperazin-1-yl]-N-[3-nitro-4-(2-phenylsulfanylethylamino)phenyl]sulfonylpyridazine-3-carboxamide]
- ASMS ratio (%) n = 1 (AS-MS, mixture library, Bcl-2): 25.0%
- ASMS ratio (%) n = 2 (AS-MS, mixture library, Bcl-2): −1.1%

Compound: CCOc1cncc(C#Cc2ccccc2CN2CCN(c3ccc(C(=O)N(CC)CC)nn3)CC2)c1 [B4J096-01]
- ASMS ratio (%) n = 2 (AS-MS, mixture library, Bcl-2): 0.0%

Compound: CCOc1cncc(-c2ccc(C(=O)N3CCN(c4ccc(C(=O)N(CC)CC)cc4)CC3)cc2C)c1 [B4J026-01, 4-[4-[4-(5-Ethoxypyridin-3-yl)-3-methylbenzoyl]piperazin-1-yl]-N,N-diethylbenzamide]
- ASMS ratio (%) n = 1 [1]: −3.6%
- ASMS ratio (%) n = 2 [1]: −5.9%

Compound: 4-[4-[3-tert-Butyl-5-(5-ethoxypyridin-3-yl)benzoyl]piperazin-1-yl]-N-propylbenzamide [B1M063-01]
- ASMS ratio (%) n = 1 [2]: 0.4%
- ASMS ratio (%) n = 2 [2]: −1.1%

Compound: CCOc1cccc(-c2ccc(CN3CCN(c4ccc(C(=O)NCC56CC7CC(CC(C7)C5)C6)cc4)CC3)cc2F)c1 [B1A051-01, N-(1-Adamantylmethyl)-4-[4-[[4-(3-ethoxyphenyl)-3-fluorophenyl]methyl]piperazin-1-yl]benzamide]
- ASMS ratio (%) n = 1 [2]: −5.4%
- ASMS ratio (%) n = 2 [2]: −4.2%
